Measurements taken from patent publication US20260374766A1, “METHODS FOR TREATING CANCER” (Antares Therapeutics, Inc., priority 2022, published 2026).
pIC50, pKd: −log10 of the molar value. Like-named read-outs stand apart in the source and are kept apart here.

Columns and labels:
[1] = molecular target: T1, p53 Y220C mutant protein (amino acid residues 94-293) (Homo sapiens, UniProt P04637, Y220C); assay: Surface Plasmon Resonance (SPR) assay, Kd_kinetic; format: binding; settings: read-out: SPR P53 Y220C KD kinetic
T1 construct: p53 Y220C mutant protein (amino acid residues 94-293)
Summary of the method: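 Kinetic dissociation constants derived by 1:1 model fit of SPR data acquired at 16 or 20 °C, pH 7.5 Tris/NaCl running buffer with 1% DMSO.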

[2] = molecular target: T1, p53 Y220C mutant protein (amino acid residues 94-293); assay: Thermal Shift Assay (TSA), dTM; format: binding; settings: for ΔTm at 10 µM: 10 uM compound; for ΔTm at 100 µM: 100 uM compound
Summary of the method: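 5 μM p53 Y220C (residues 94-293) incubated 3 h at 20 °C with 10 μM or 100 μM compound in 20 mM HEPES pH 7.4, 100 mM NaCl, 0.01% Pluronic F-127, 1% DMSO plus Sypro Orange. Melt from 30 to 50 °C at 0.03 °C/s; TM from Boltzmann two-state fit.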

[3] = molecular target: p53 Y220C (Homo sapiens, UniProt P04637, Y220C); assay: Luciferase Reporter Assay (Luc), p53 response element, NClH1299 cells with inducible p53 Y220C; format: cell-based; settings: luciferase reporter, NClH1299 inducible p53 Y220C, 6 hour; for AC50: read-out: Luc P53 Y220C AC50
Summary of the method: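 H1299 cells induced with 0.5 ug/mL doxycycline for 24 hours, then exposed to compound for 6 hours. p53 response-element luciferase read by One-Glo luminescence after 5 min shaking at room temperature.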

[4] = test system: NUGC3 p53 Y220C; assay: Cell Proliferation Assay (CellTiter-Glo, CTG), NUGC3 p53 Y220C; format: cell-based; settings: Homo sapiens, NUGC-3, 120 h, CellTiter-Glo, 5 days
Summary of the method: (§1)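 Tet-One inducible p53 Y220C or R273H constructs were stably introduced into NCI-H1299 by lentiviral transduction; NUGC3 was used as is. Cells (250-500 per well) were exposed to compound for 5 days, then CellTiter-Glo was added for 10 min at room temperature and IC50 was calculated from luminescence.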

[5] = test system: H1299 p53 Y220C; assay: Cell Proliferation Assay (CellTiter-Glo, CTG), H1299 p53 Y220C (NClH1299-inducible p53 Y220C); format: cell-based; settings: Homo sapiens, NCI-H1299, 120 h, CellTiter-Glo, 5 days
Summary of the method: as §1

[6] = test system: H1299 p53 R273H; assay: Cell Proliferation Assay (CellTiter-Glo, CTG), H1299 p53 R273H (NClH1299-inducible p53 R273H); format: cell-based; settings: Homo sapiens, NCI-H1299, 120 h, CellTiter-Glo, 5 days
Summary of the method: as §1

[7] = thermal shift, read-out: TSA P53 Y220C dTM (10 uM)
[8] = thermal shift, read-out: TSA P53 Y220C dTM (100 uM)
[9] = 10 uM tool compound as positive control
[10] = p53 Y220C, read-out: TSA P53 Y220C dTM
[11] = NClH1299-inducible p53 Y220C cells
[12] = NClH1299-inducible p53 R273H cells

SMILES | pKd [1] | ΔTm at 10 µM [2, 7] | ΔTm at 100 µM [2, 8] | Emax [3, 9] | AC50 [3] | pIC50 ([5]; H1299 p53 Y220C) | pIC50 ([6]; H1299 p53 R273H) | pKd ([1]; SPR, p53 Y220C) | ΔTm at 10 µM [2, 10] | AC50 ([3]; AC50) | Emax ([3]; Emax) | pIC50 [5, 11] | pIC50 [6, 12] | pKd ([1]; SPR, kinetic KD, p53 Y220C) | ΔTm at 100 µM [2, 10] | pIC50 ([4]; NUGC3 p53 Y220C) | pIC50 ([4]; NUGC3 cells)
CNC(=O)c1cc(F)c(OC)c(NCC#Cc2nc3c(N[C@@H]4CCNC[C@@H]4F)cccn3c2SC(F)(F)F)c1 [Example 304] | – | – | – | – | – | – | – | > 8.00 | ≥ 10 °C | < 750 nM | > 90% | > 6.12 | > 5.30 | – | – | – | > 6.12
CN1CC[C@@H](Nc2cccn3c(CC(F)(F)F)c(C#C[C@H](O)c4ccccc4)nc23)[C@@H](F)C1 [Example 73, (1R)-3-(8-{[(3S,4R)-3-fluoro-1-methylpiperidin-4-yl]amino}-3-(2,2,2-trifluoroethyl)imidazo[1,2-a]pyridin-2-yl)-1-phenylprop-2-yn-1-ol] | – | – | 5 to 10 °C | < 70% | > 3000 nM | 5.52 to 5.82 | > 5.30 | – | – | – | – | – | – | 6.00 to 7.00 | – | 5.52 to 5.82 | –
CNC(=O)c1cnc(OC)c(NCC#Cc2nc3c(N[C@@H]4C[C@H]5CC[C@H](N5)[C@@H]4F)cccn3c2SC(F)(F)F)c1 [Example 264] | – | – | – | – | – | – | – | > 8.00 | ≥ 10 °C | < 750 nM | 70 to 80% | > 6.12 | 5.00 to 5.10 | – | ≥ 10 °C | – | > 6.12
CNC(=O)Nc1cc(NC2CCN(C)CC2)c2nc(C#CCNc3ccc(C(=O)NC)cc3OC)c(CC(F)(F)F)n2c1 [Example 44, 3-methoxy-N-methyl-4-[(3-{6-[(methylcarbamoyl)amino]-8-[(1-methylpiperidin-4-yl)amino]-3-(2,2,2-trifluoroethyl)imidazo[1,2-a]pyridin-2-yl}prop-2-yn-1-yl)amino]benzamide] | – | – | 1 to 5 °C | < 70% | > 3000 nM | < 5.52 | ≤ 5.00 | – | – | – | – | – | – | 6.00 to 7.00 | – | < 5.52 | –
COc1cc(S(C)(=O)=O)ccc1NCC#Cc1nc2c(N[C@@H]3CCN(C)C[C@@H]3F)cccn2c1CC(F)(F)F [Example 1, (3S,4R)-3-fluoro-N-(2-{3-[(4-methanesulfonyl-2-methoxyphenyl)amino]prop-1-yn-1-yl}-3-(2,2,2-trifluoroethyl)imidazo[1,2-a]pyridin-8-yl)-1-methylpiperidin-4-amine] | – | – | ≥ 10 °C | 70 to 80% | 750 to 1500 nM | > 6.12 | 5.00 to 5.10 | – | – | – | – | – | – | > 8.00 | – | 5.82 to 6.12 | –
CNC(=O)c1ccc(NCC#Cc2nc3c(N[C@@H]4C[C@@H]5COC[C@H]([C@@H]4F)N5C)cccn3c2SC(F)(F)F)c(OC)c1 [Example 283] | – | – | – | – | – | – | – | > 8.00 | ≥ 10 °C | < 750 nM | 80 to 90% | > 6.12 | ≤ 5.00 | – | – | – | > 6.12
CCc1c(C#CCNc2ccc(S(C)(=O)=O)cc2OC)nc2c(N[C@@H]3CCN(C)C[C@@H]3F)cccn12 [Example 15, (3S,4R)—N-(3-ethyl-2-{3-[(4-methanesulfonyl-2-methoxyphenyl)amino]prop-1-yn-1-yl}imidazo[1,2-a]pyridin-8-yl)-3-fluoro-1-methylpiperidin-4-amine] | – | – | 5 to 10 °C | < 70% | 1500 to 3000 nM | 5.52 to 5.82 | 5.00 to 5.10 | – | – | – | – | – | – | 7.00 to 8.00 | – | 5.52 to 5.82 | –

Second part, led by results:

pKd [1] | ΔTm at 10 µM [2, 7] | ΔTm at 100 µM [2, 8] | Emax [3, 9] | AC50 [3] | pIC50 ([5]; H1299 p53 Y220C) | pIC50 ([6]; H1299 p53 R273H) | pKd ([1]; SPR, p53 Y220C) | ΔTm at 10 µM [2, 10] | AC50 ([3]; AC50) | Emax ([3]; Emax) | pIC50 [5, 11] | pIC50 [6, 12] | pKd ([1]; SPR, kinetic KD, p53 Y220C) | ΔTm at 100 µM [2, 10] | SMILES | pIC50 ([4]; NUGC3 p53 Y220C) | pIC50 ([4]; NUGC3 cells)
> 8.00 | ≥ 10 °C | ≥ 10 °C | > 90% | < 750 nM | > 6.12 | 5.00 to 5.10 | – | – | – | – | – | – | – | – | CNC(=O)c1ccc(NCC#Cc2cc3c(N[C@@H]4CCN(C)C[C@@H]4F)nccn3c2SC(F)(F)F)c(OC)c1 [Example 155, 4-{[3-(1-{[(3S,4R)-3-fluoro-1-methylpiperidin-4-yl]amino}-6-[(trifluoromethyl)sulfanyl]pyrrolo[1,2-a]pyrazin-7-yl)prop-2-yn-1-yl]amino}-3-methoxy-N-methylbenzamide; formic acid] | > 6.12 | –
– | – | – | – | – | – | – | > 8.00 | ≥ 10 °C | < 750 nM | > 90% | > 6.12 | ≤ 5.00 | – | – | CNC(=O)c1ccc(OC)c(NCC#Cc2cc3c(N[C@@H]4CCN(C)C[C@@H]4F)nccn3c2SC(F)F)c1 [Example 321] | – | > 6.12
– | – | – | – | – | – | – | > 8.00 | ≥ 10 °C | < 750 nM | > 90% | > 6.12 | ≤ 5.00 | – | – | CCNC(=O)c1ccc(OC)c(NCC#Cc2cc3c(N[C@@H]4CCN(C)C[C@@H]4F)nccn3c2SC(F)(F)F)c1 [Example 290] | – | > 6.12
– | 5 to 10 °C | ≥ 10 °C | 80 to 90% | 1500 to 3000 nM | 5.52 to 5.82 | ≤ 5.00 | – | – | – | – | – | – | > 8.00 | – | COc1ccc(S(C)(=O)=O)cc1NCC#Cc1nc2c(N[C@@H]3CCN(C)C[C@@H]3F)cccn2c1SC(F)(F)F [Example 84, (3S,4R)-3-fluoro-N-(2-{3-[(5-methanesulfonyl-2-methoxyphenyl)amino]prop-1-yn-1-yl}-3-[(trifluoromethyl)sulfanyl]imidazo[1,2-a]pyridin-8-yl)-1-methylpiperidin-4-amine] | 5.52 to 5.82 | –
– | – | – | – | – | – | – | > 8.00 | ≥ 10 °C | < 750 nM | 80 to 90% | > 6.12 | > 5.30 | – | ≥ 10 °C | CNC(=O)c1ccc(OC)c(NCC#Cc2nn3c(N[C@@H]4C[C@H]5CC[C@@H]([C@@H]4F)N5C)cccc3c2SC(F)(F)F)c1 [Example 284] | – | > 6.12
– | – | – | – | – | – | – | > 8.00 | ≥ 10 °C | < 750 nM | > 90% | > 6.12 | 5.00 to 5.10 | – | – | COc1cc(P(C)(C)=O)ccc1NCC#Cc1cc2c(N[C@@H]3CCN(C)C[C@@H]3F)cccn2c1SC(F)(F)F [Example 346] | – | > 6.12
– | – | 5 to 10 °C | 70 to 80% | > 3000 nM | 5.52 to 5.82 | ≤ 5.00 | – | – | – | – | – | – | 7.00 to 8.00 | – | CNC(=O)c1ccc(NCC#Cc2nc3c(N[C@@H]4CCN(C)C[C@@H]4F)cccn3c2CC(F)(F)F)c(OC(F)(F)F)c1 [Example 53, 4-{[3-(8-{[(3S,4R)-3-fluoro-1-methylpiperidin-4-yl]amino}-3-(2,2,2-trifluoroethyl)imidazo[1,2-a]pyridin-2-yl)prop-2-yn-1-yl]amino}-N-methyl-3-(trifluoromethoxy) benzamide] | 5.52 to 5.82 | –
